Values belong to the compound of their own block, whether it stands above or below them. Calls of active or inactive are those of the source. No cut-off for these calls is given here.
Tests used:
[1] = target: T1, DEP domain-containing mTOR-interacting protein (Homo sapiens, UniProt Q8TB45); test: Inhibition of DEPTOR in human RPMI8226 cells assessed as increase in mTOR kinase activity by measuring induction of p70 phosphorylation incubated for 6 hrs by Western blot analysis; format: cell-based
MM1.S [2] = test: Cytotoxicity in human MM1S cells incubated for 48 hrs by MTT assay; format: functional, cell-based
RPMI-8226 [3] = test: Induction of apoptosis in human RPMI8226 cells at 0.12 to 2 uM by flow cytometry; format: functional, cell-based
[4] = target: T1, DEP domain-containing mTOR-interacting protein; test: Inhibition of DEPTOR in human RPMI8226 cells assessed as increase in mTOR kinase activity by measuring induction of p21 expression at 0.5 to 2 uM uM by Western blot analysis; format: cell-based
[5] = Therapeutic index, ratio of IC50 for cytotoxicity against human PBL cells incubated for 48 hrs by MTT assay to IC50 for cytotoxicity against human MM1S cells incubated for 48 hrs by MTT assay; format: toxicity, cell-based; conditions: PBL cells versus MM1S cells, read-out: Ratio IC50
[6] = target: T1, DEP domain-containing mTOR-interacting protein; test: Inhibition of DEPTOR in human RPMI8226 cells assessed as induction of mTORC1 activation at 0.5 uM incubated for 6 hrs co-immunoprecipitation assay; format: cell-based
MM1.S [7] = test: Cytotoxicity in human MM1S cells at 0.12 to 1 uM incubated for 48 hrs in presence of RAPTOR siRNA by MTT assay; format: functional, cell-based
OPM-2 [8] = test: Cytotoxicity in human OPM2 cells incubated for 48 hrs by MTT assay; format: functional, cell-based; conditions: OPM-2, 48 h
OPM-2 [9] = test: Induction of apoptosis in human OPM2 cells at 0.12 to 2 uM incubated for 48 hrs incubated for 48 hrs by flow cytometry; format: functional, cell-based
[10] = Toxicity in normal hematopoietic colony forming cells (unknown origin) assessed as reduction in colony formation at 10 uM
RPMI-8226 [11] = test: Antitumor activity against human RPMI8226 cells xenografted in mouse assessed as reduction in tumor volume at 20 mg/kg, ip dosed daily for 4 days; format: functional, organism-based
[12] = target: T1, DEP domain-containing mTOR-interacting protein; test: Inhibition of DEPTOR in human RPMI8226 cells assessed as induction of mTORC1 activation at 1 uM incubated for 6 hrs co-immunoprecipitation assay; format: cell-based
NCI-H929 = test: Induction of apoptosis in human NCI-H929 cells at 0.12 to 2 uM incubated for 48 hrs by flow cytometry; format: functional, cell-based
[13] = target: DEPTOR/mTOR (Homo sapiens) (UniProt P42345+Q8TB45); test: Inhibition of DEPTOR-mTOR interaction (unknown origin) by yeast-2-hybrid screen based assay; format: protein assay
RPMI-8226 [14] = test: Induction of p70 degradation in human RPMI8226 cells at 1 to 2 uM incubated for 6 hrs by Western blot analysis; format: cell-based; conditions: rpmi-8226, 6 h
RPMI-8226 [15] = test: Toxicity in human RPMI8226 cells at 1 to 2 uM incubated for 6 hrs; format: cell-based; conditions: rpmi-8226, 6 h
RPMI-8226 [16] = test: Toxicity in human RPMI8226 cells at 0.05 to 0.2 uM incubated for 6 hrs; format: cell-based; conditions: rpmi-8226, 6 h
RPMI-8226 [17] = test: Toxicity in human RPMI8226 cells at 0.5 uM incubated for 6 hrs; format: cell-based; conditions: rpmi-8226, 6 h
[18] = Toxicity in normal hematopoietic colony forming cells (unknown origin) assessed as reduction in colony formation at 0.5 uM
[19] = target: T1, DEP domain-containing mTOR-interacting protein; test: Inhibition of DEPTOR in human RPMI8226 cells assessed as increase in mTOR kinase activity by measuring induction of p21 expression at 0.25 to 1 uM uM by Western blot analysis; format: cell-based
[20] = target: T1, DEP domain-containing mTOR-interacting protein; test: Induction of proteasome-dependent DEPTOR degradation in human RPMI8226 cells at 0.5 to 2 uM; format: cell-based
RPMI-8226 [21] = test: Induction of apoptosis in human RPMI8226 cells transfected with DEPTOR at 0.12 to 1 uM by flow cytometry; format: functional, cell-based
RPMI-8226 [22] = test: Toxicity in human RPMI8226 cells xenografted in mouse assessed as effect on normal WBC counts at 20 mg/kg, ip dosed daily for 4 days; format: organism-based; conditions: in vivo, 96 h
RPMI-8226 [23] = test: Cytotoxicity in human RPMI8226 cells transfected with DEPTOR at 0.25 to 1 uM incubated for 48 hrs by MTT assay; format: functional, cell-based
RPMI-8226 [24] = test: Toxicity in human RPMI8226 cells xenografted in mouse assessed as effect on hematocrit at 20 mg/kg, ip dosed daily for 4 days; format: organism-based; conditions: in vivo, 96 h
RPMI-8226 [25] = test: Toxicity in human RPMI8226 cells xenografted in mouse assessed as effect on hemoglobin concentration at 20 mg/kg, ip dosed daily for 4 days; format: organism-based; conditions: in vivo, 96 h
RPMI-8226 [26] = test: Toxicity in human RPMI8226 cells xenografted in mouse assessed as effect on platelet count at 20 mg/kg, ip dosed daily for 4 days; format: organism-based; conditions: in vivo, 96 h
MM1.S [27] = test: Cytotoxicity in human MM1S cells at 0.25 to 2 uM incubated for 48 hrs in presence of RAPTOR siRNA by MTT assay; format: functional, cell-based

Sequence of DEPTOR/mTOR (Homo sapiens) (Q8TB45 whole entry, looked up, other chains not shown): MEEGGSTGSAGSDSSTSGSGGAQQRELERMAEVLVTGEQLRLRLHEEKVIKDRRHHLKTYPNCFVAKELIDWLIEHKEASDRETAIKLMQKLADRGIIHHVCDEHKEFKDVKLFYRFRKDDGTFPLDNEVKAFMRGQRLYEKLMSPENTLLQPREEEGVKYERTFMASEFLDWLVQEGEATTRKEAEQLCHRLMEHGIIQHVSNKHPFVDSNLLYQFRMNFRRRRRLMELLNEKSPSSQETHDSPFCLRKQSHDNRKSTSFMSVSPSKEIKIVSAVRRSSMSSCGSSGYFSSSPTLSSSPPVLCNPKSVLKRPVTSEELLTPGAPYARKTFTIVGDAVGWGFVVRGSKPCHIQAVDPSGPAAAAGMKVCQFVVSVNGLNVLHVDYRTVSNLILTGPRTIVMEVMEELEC
T1 sequence (Q8TB45 whole entry, the tested form may be a part): as the sequence (Q8TB45 whole entry, looked up, other chains not shown) above

IC50 [1]: > 5000 nM
SMILES: ClC1=C(Cl)C(Cl)=C(Cl)C1=NNC1CCCCC1
IC50 (MM1.S [2]): > 3000 nM

inhibition [4]: Active
mTORC1 activation (active/not active) [6]: inactive
SMILES: CC(C)(C)OC(=O)NN=C1C(Cl)=C(Cl)C(Cl)=C1Cl
Activity (RPMI-8226 [3]): Active
selectivity ratio at 48 h [5]: 45.5
Activity (MM1.S [7]): inactive

SMILES: NN=C(c1ccccc1)c1ccccc1
IC50 (MM1.S [2]): > 5000 nM

inhibition [4]: Active
SMILES: O=C(c1ccc(F)cc1)N(N=C1C(Cl)=C(Cl)C(Cl)=C1Cl)C(=O)c1ccc(F)cc1
Activity (RPMI-8226 [3]): Active
selectivity ratio at 48 h [5]: 10

SMILES: Fc1ccccc1NN=C1C(Cl)=C(Cl)C(Cl)=C1Cl
IC50 (MM1.S [2]): > 3000 nM

SMILES: CN(C)N=C1C(Cl)=C(Cl)C(Cl)=C1Cl
IC50 (MM1.S [2]): > 3000 nM

SMILES: NN=c1c2ccccc2oc2ccccc12
IC50 (MM1.S [2]): > 5000 nM

SMILES: Cc1cccc(NN=C2C(Cl)=C(Cl)C(Cl)=C2Cl)c1
IC50 (MM1.S [2]): > 3000 nM

IC50 [1]: > 5000 nM
SMILES: CC(C)(C)NN=C1C(Cl)=C(Cl)C(Cl)=C1Cl
IC50 (MM1.S [2]): > 3000 nM

SMILES: NN=C1C(Cl)=C(Cl)C(Cl)=C1Cl
IC50 (OPM-2 [8]): 4000 nM
IC50 [1]: 1300 nM
Activity (OPM-2 [9]): Active
IC50 (MM1.S [2]): 3000 to 3300 nM
Activity [10]: Toxic
Activity (RPMI-8226 [3]): Active
Activity (RPMI-8226 [11]): Active
selectivity ratio at 48 h [5]: 14.3
mTORC1 activation (active/not active) [6]: inactive
inhibition [12]: Active
Activity (NCI-H929): Active
inhibition activity call (active/inactive) [13]: Active

SMILES: COc1cccc(NN=C2C(Cl)=C(Cl)C(Cl)=C2Cl)c1
IC50 (MM1.S [2]): > 3000 nM

SMILES: O=C(NN=C1C(Cl)=C(Cl)C(Cl)=C1Cl)c1ccccc1
Activity (RPMI-8226 [14]): Toxic
Activity (RPMI-8226 [15]): Toxic
Activity (RPMI-8226 [16]): Non-Toxic
Activity (RPMI-8226 [17]): Toxic

SMILES: Fc1cccc(NN=C2c3ccccc3-c3ccccc32)c1
IC50 (MM1.S [2]): > 5000 nM

SMILES: CC(C)(C)OC(=O)NN=C1c2ccccc2-c2ccccc21
IC50 (MM1.S [2]): > 5000 nM

inhibition [4]: Active
mTORC1 activation (active/not active) [6]: inactive
SMILES: Fc1ccc(NN=C2C(Cl)=C(Cl)C(Cl)=C2Cl)cc1
selectivity ratio at 48 h [5]: 33
Activity (MM1.S [7]): inactive

inhibition activity call (active/inactive) [13]: Active
SMILES: O=C(O)c1ccc2c(c1)CCC2

SMILES: ClC1=C(Cl)C(Cl)=C(Cl)C1=NN(c1ccccc1)c1ccccc1
IC50 (MM1.S [2]): > 3000 nM

inhibition activity call (active/inactive) [13]: Active
SMILES: CN(C)c1ccc(/C=C2\C=Cc3ccccc32)cc1F
Activity [18]: Toxic

inhibition activity call (active/inactive) [13]: Active
SMILES: CCCCCCCCNS(=O)(=O)c1ccccc1

inhibition [19]: Active
SMILES: CC(C)(C)C(=O)NN=C1C(Cl)=C(Cl)C(Cl)=C1Cl
Activity (RPMI-8226 [3]): Active
selectivity ratio at 48 h [5]: 14

Activity [20]: Active
inhibition [19]: Active
mTORC1 activation (active/not active) [6]: Active
SMILES: FC(F)(F)c1cccc(NN=C2C(Cl)=C(Cl)C(Cl)=C2Cl)c1
IC50 (OPM-2 [8]): 300 nM
Activity (OPM-2 [9]): Active
Activity (RPMI-8226 [21]): inactive
Activity (RPMI-8226 [3]): Active
Activity (RPMI-8226 [11]): Active
selectivity ratio at 48 h [5]: 136
Activity (RPMI-8226 [22]): Toxic
Activity (RPMI-8226 [23]): inactive
Activity (RPMI-8226 [24]): Non-Toxic
Activity (NCI-H929): Active
Activity (RPMI-8226 [25]): Non-Toxic
Activity (RPMI-8226 [26]): Non-Toxic
Activity (MM1.S [27]): inactive

Source: ChEMBL document CHEMBL4417640, “Inhibitors of mtor-deptor interactions and methods of use thereof” (2018)
